Test results: PubChem BioAssay (NCI)
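Five compound concentrations were applied to cells in 96-well plates for 48 hours; endpoints were derived by simple linear interpolation of the resulting dose-response curve. The concentration for 50% growth inhibition is given as GI50. The concentration for full growth arrest is given as TGI.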

Tests used:
Assay in all cases: growth of human tumour cells (NCI), 48 h
ACHN renal = test system: ACHN renal
LOX IMVI melanoma = test system: LOX IMVI melanoma
LXFL 529 NSCLC = test system: LXFL 529 NSCLC
MALME-3M melanoma = test system: MALME-3M melanoma
SN12C renal = test system: SN12C renal
SNB-75 CNS = test system: SNB-75 CNS
KM20L2 colon = test system: KM20L2 colon
BT-549 breast = test system: BT-549 breast
MDA-MB-231 breast = test system: MDA-MB-231 breast

SMILES	TGI (ACHN renal)	TGI (LOX IMVI melanoma)	TGI (LXFL 529 NSCLC)	TGI (MALME-3M melanoma)	TGI (SN12C renal)	TGI (SNB-75 CNS)	TGI (KM20L2 colon)	TGI (BT-549 breast)	TGI (MDA-MB-231 breast)	GI50 (ACHN renal)	GI50 (BT-549 breast)	GI50 (LOX IMVI melanoma)	GI50 (MALME-3M melanoma)	GI50 (MDA-MB-231 breast)	GI50 (SN12C renal)	GI50 (SNB-75 CNS)
CN1NC(c2ccccc2)=C(C#N)C(=O)CC1c1ccccc1Cl (stereo unspecified)	> 100 µM	> 100 µM	> 100 µM	> 100 µM	> 100 µM	> 100 µM	–	–	–	–	–	–	–	–	–	–
COc1ccc2c3c([nH]c2c1[N+](=O)[O-])C(C)N(C(=O)/C=C/c1ccccc1)CC3 (stereo unspecified)	> 100 µM	42.6 µM	> 100 µM	–	> 100 µM	–	> 100 µM	–	–	–	–	–	–	–	–	–
O=C(O)C1(C(=O)O)CCN(S(=O)(=O)c2ccccc2)CC1	> 100 µM	> 100 µM	–	> 100 µM	> 100 µM	> 100 µM	–	> 100 µM	> 100 µM	–	–	–	–	–	–	–
CN(C)c1ccc2c(SCC(=O)OCC(=O)[C@@]3(O)CC[C@H]4[C@@H]5CCC6=CC(=O)C=C[C@]6(C)[C@H]5C(=O)C[C@@]43C)c3ccc(N(C)C)cc3nc2c1	20 µM	> 100 µM	–	> 100 µM	> 59.3 µM	> 89.7 µM	–	> 49.5 µM	> 93.8 µM	–	–	–	–	–	–	–
CCOc1ccc2c(-c3ccnc(Nc4cccc(C(F)(F)F)c4)n3)cnn2n1	> 25 µM	> 25 µM	–	> 25 µM	> 25 µM	> 25 µM	–	> 25 µM	> 25 µM	16.3 µM	> 23.8 µM	12.3 µM	> 25 µM	14.7 µM	15.1 µM	9.81 µM
CN1CCN(c2ccc(NC3=C(Cl)C(=O)c4ncccc4C3=O)cc2C(F)(F)F)CC1	2.8 µM	2.94 µM	–	2.83 µM	3.31 µM	19.8 µM	–	26.3 µM	5.02 µM	1.48 µM	13 µM	1.53 µM	1.46 µM	1.69 µM	1.79 µM	5.44 µM
COc1ccc(-n2nc(C)c3c(Nc4ccc(NC(=O)Nc5cc(C(F)(F)F)ccc5F)cc4)ncnc32)cc1	42.9 µM	3.1 µM	–	4.06 µM	42.9 µM	7.84 µM	–	7.67 µM	3.55 µM	2.92 µM	2.49 µM	1.67 µM	1.76 µM	1.61 µM	2.96 µM	1.21 µM
COc1ccc(/C=C2/CCOC2=O)cc1	> 100 µM	> 100 µM	–	> 100 µM	> 100 µM	> 100 µM	–	> 100 µM	> 100 µM	> 100 µM	> 100 µM	> 100 µM	> 100 µM	> 100 µM	> 100 µM	> 100 µM
CN1CCN(c2ccc3nc(-c4ccc5nc(-c6ccc(C(F)(F)F)cc6)[nH]c5c4)[nH]c3c2)CC1	17.7 µM	3.36 µM	–	2.44 µM	3.96 µM	9.97 µM	–	22.5 µM	3.85 µM	3.94 µM	5.91 µM	1.82 µM	1.08 µM	2.11 µM	1.9 µM	1.87 µM
CC(C)(C)c1ccc(NC(=O)c2cc(=O)c3ccccc3[nH]2)c(C(C)(C)C)c1O	12.8 µM	13.1 µM	–	26.3 µM	24.4 µM	21.8 µM	–	19.9 µM	13.9 µM	4.13 µM	6.77 µM	3.22 µM	12.1 µM	3.29 µM	9.81 µM	7.4 µM
CCCCCCCCOC(=O)c1cc(O)c(O)c(O)c1	13.8 µM	10.6 µM	–	9.25 µM	31.7 µM	37.6 µM	–	14.2 µM	63.1 µM	1.6 µM	2.08 µM	1.33 µM	1.74 µM	12.1 µM	3.21 µM	2.71 µM
C[C@]1(O)CC(=O)[C@]2(O)C3=C(C=C[C@]2(O)C1)C(=O)c1c(O)cccc1C3=O	1.73 µM	5.77 µM	–	1.84 µM	3.18 µM	26.4 µM	–	9.44 µM	6.6 µM	0.5 µM	2.62 µM	2.25 µM	0.492 µM	2.25 µM	1.72 µM	11.4 µM
O=C1c2ccccc2C(=O)c2c1c(NCCNCCO)c1cc[nH]c1c2NCCNCCO	> 100 µM	> 100 µM	–	5.16 µM	2.67 µM	> 100 µM	–	8.94 µM	18.9 µM	9.96 µM	2.75 µM	1.53 µM	1.8 µM	4.15 µM	0.354 µM	9.77 µM
